From patent US20030162818A1, “Acylsulfonamide derivative” (AJINOMOTO CO. INC., priority 1997, published 2003) come the findings set out here.

Molecules are shown by their SMILES.

As usually defined, the melting point is the temperature of the solid-liquid transition. `O=C(NS(=O)(=O)c1ccccc1NC(=O)c1cccc(OCc2ccccc2)c1)Oc1ccccc1` showed a melting point of 163 to 164 °C.

`CCCCCC(=O)NS(=O)(=O)c1ccccc1NC(=O)c1cccc(OCC2CCCCC2)c1` [Example 27, N-[2-(3-Cyclohexylmethoxybenzamido)benzenesulfonyl]hexanamide] yielded a melting point of 112 to 113 °C. The figure for `CC(=O)NS(=O)(=O)c1ccccc1NC(=O)c1cccc(OCc2ccc(C(F)(F)F)cc2)c1` [Example 32, N-[2-[3-(4-Trifluoromethylbenzyloxy)benzamido]benzenesulfonyl]acetamide] is 164 to 165 °C. `CC(=O)NS(=O)(=O)c1ccccc1NC(=O)c1cccc(OCc2ccccc2)c1` [Example 3, N-[2-(3-Benzyloxybenzamido)benzenesulfonyl]acetamide] displayed a melting point of 195 to 196 °C. The figure for `COc1ccc(C(=O)NS(=O)(=O)c2ccccc2NC(=O)c2cccc(OCc3ccccc3)c2)cc1` [Example 6, N-[2-(3-Benzyloxybenzamido)benzenesulfonyl]-4-methoxybenzamide] is 189 to 190 °C; for `CC(C)=CC(=O)NS(=O)(=O)c1ccccc1NC(=O)c1ccc(C#Cc2ccccc2)cc1` [Example 42, 3-Methyl-N-[2-(4-phenylethynylbenzamido)benzenesulfonyl]-2-butenamide] it is 187 to 188 °C; for `CCCCCC(=O)NS(=O)(=O)c1ccccc1NC(=O)c1cccc(OCc2ccc(Cl)cc2)c1` [Example 18, N-[2-[3-(4-Chlorobenzyloxy)benzamido]benzenesulfonyl]hexanamide] it is 148 to 149 °C. As to `CCCCCCCOc1cccc(C(=O)Nc2ccccc2S(=O)(=O)NC(C)=O)c1` [Example 35, N-[2-(3-Heptyloxybenzamido)benzenesulfonyl]acetamide], the melting point lay within 194 to 195 °C. The figure for `CCCCCC(=O)NS(=O)(=O)c1ccccc1NC(=O)c1cccc(OCc2ccc([N+](=O)[O-])cc2)c1` [Example 21, N-[2-[3-(4-Nitrobenzyloxy)benzamido]benzenesulfonyl]hexanamide] is 138 to 141 °C. The value for `CCCCCCCOc1cccc(C(=O)Nc2ccccc2S(=O)(=O)NC(=O)CCCCC)c1` [Example 36, N-[2-(3-Heptyloxybenzamido)benzenesulfonyl]hexanamide] was 200 to 201 °C. `CC(=O)NS(=O)(=O)c1ccccc1NC(=O)c1ccc(C#Cc2ccccc2)cc1` [Example 38, N-[2-(4-Phenylethynylbenzamido)benzenesulfonyl]acetamide]: the melting point was 214 to 215 °C. Regarding `CC(C)(C)C(=O)NS(=O)(=O)c1ccccc1NC(=O)c1cccc(OCc2ccc(C(C)(C)C)cc2)c1` [Example 12, N-[2-[3-(4-t-Butylbenzyloxy)benzamido]benzenesulfonyl]pivalamide], the melting point lay within 193 to 194 °C.

As to `CCCCCCCCNC(=O)NS(=O)(=O)c1ccccc1NC(=O)c1cccc(OCc2ccccc2)c1`, the melting point fell in the range of 124 to 125 °C. The figure for `CC(C)(C)C(=O)NS(=O)(=O)c1ccccc1NC(=O)c1ccc(C#Cc2ccccc2)cc1` [Example 41, N-[2-(4-Phenylethynylbenzamido)benzenesulfonyl]pivalamide] is 236 to 237 °C; for `CCCCCC(=O)NS(=O)(=O)c1ccccc1NC(=O)c1cccc(OCc2ccccc2)c1` [Example 8, N-[2-(3-Benzyloxybenzamido)benzenesulfonyl]-n-hexanamide] it is 133 to 134 °C.

Consider `CCCCCC(=O)NS(=O)(=O)c1ccccc1NC(=O)c1cccc(OCc2ccc(OC)cc2)c1` [Example 24, N-[2-[3-(4-Methoxybenzyloxy)benzamido]benzenesulfonyl]hexanamide], for which the melting point lay in the range of 154 to 157 °C. In the case of `O=C(Nc1ccccc1S(=O)(=O)NC(=O)c1ccc([N+](=O)[O-])cc1)c1cccc(OCc2ccccc2)c1` [Example 5, N-[2-(3-Benzyloxybenzamido)benzenesulfonyl]-4-nitrobenzamide], the melting point was 233 to 234 °C.

With `CC(=O)NS(=O)(=O)c1ccccc1NC(=O)c1cccc(OCc2ccc(C(C)(C)C)cc2)c1` [Example 29, N-[2-[3-(4-t-Butylbenzyloxy)benzamido]benzenesulfonyl]acetamide], the melting point was 190 to 191 °C. The value for `O=C(Nc1ccccc1S(=O)(=O)NC(=O)c1ccc(C(F)(F)F)cc1)c1cccc(OCc2ccccc2)c1` [Example 4, N-[2-(3-Benzyloxybenzamido)benzenesulfonyl]-4-trifluoromethylbenzamide] was 220 to 221 °C; that for `COc1ccc(COc2cccc(C(=O)Nc3ccccc3S(=O)(=O)NC(C)=O)c2)cc1` [Example 23, N-[2-[3-(4-methoxybenzyloxy)benzamido]benzenesulfonyl]acetamide] was 114 to 117 °C. `CCCCNC(=O)NS(=O)(=O)c1ccccc1NC(=O)c1cccc(OCc2ccccc2)c1` came in with a melting point of 177 to 178 °C. `O=C(Nc1ccccc1S(=O)(=O)NC(=O)c1ccc(F)cc1F)c1cccc(OCc2ccccc2)c1` [Example 11, N-[2-(3-Benzyloxybenzamido)benzenesulfonyl]-2,4-difluorobenzamide] displayed a melting point of 208 to 209 °C. `O=C(Nc1ccccc1S(=O)(=O)NC(=O)c1cccc(OCc2ccccc2)c1)c1cccc(OCc2ccccc2)c1` [Example 1, N-[2-(3-Benzyloxybenzamido)benzenesulfonyl]-3-benzyloxybenzamide] showed a melting point of 172 to 173 °C.
